Reference: article PMC8550792, “Evolution of kinase polypharmacology across HSP90 drug discovery” (Cell Chemical Biology, 2021)

How the values were obtained:
ABL2/ARG = molecular target: T1, ABL2/ARG (Homo sapiens, UniProt P42684); test: HotSpot in vitro kinase radiometric assay; format: biochemical
T1 construct: purchased Reaction Biology (HotSpot contract assay)

BLK = molecular target: T2, BLK (Homo sapiens, UniProt P51451); test: HotSpot in vitro kinase radiometric assay; format: biochemical
T2 construct: purchased Reaction Biology (HotSpot contract assay)
In short: (§1)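 Radiometric filter-binding read-out of 32P/33P-labelled phosphoproduct captured on filter paper. Reactions contain kinase, substrate, cofactors and ɣ-labelled ATP plus test compound; no modified substrate or coupling enzyme used.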

LYN B = molecular target: T3, LYN B (Homo sapiens, UniProt P07948); test: HotSpot in vitro kinase radiometric assay; format: biochemical
T3 construct: purchased Reaction Biology (HotSpot contract assay)
In short: as §1

PDK2/PDHK2 = molecular target: T4, PDK2/PDHK2 (Homo sapiens, UniProt Q15119); test: HotSpot in vitro kinase radiometric assay; format: biochemical; settings: read-out: % inhibition at 10 uM: PDK2
T4 construct: purchased Reaction Biology (HotSpot contract assay)
In short: as §1

PDK4/PDKH4 = molecular target: T5, PDK4/PDKH4 (Homo sapiens, UniProt Q16654); test: HotSpot in vitro kinase radiometric assay; format: biochemical
T5 construct: purchased Reaction Biology (HotSpot contract assay)
In short: as §1

c-Src = molecular target: T6, c-Src (Homo sapiens, UniProt P12931); test: HotSpot in vitro kinase radiometric assay; format: biochemical
T6 construct: purchased Reaction Biology (HotSpot contract assay)
In short: as §1

PEAK1 = molecular target: T7, PEAK1 (Homo sapiens, UniProt Q9H792); test: HotSpot in vitro kinase radiometric assay; format: biochemical
T7 construct: purchased Reaction Biology (HotSpot contract assay)

FGR = molecular target: T8, FGR (Homo sapiens, UniProt P09769); test: HotSpot in vitro kinase radiometric assay; format: biochemical
T8 construct: purchased Reaction Biology (HotSpot contract assay)

FYN = molecular target: T9, FYN (Homo sapiens, UniProt P06241); test: HotSpot in vitro kinase radiometric assay; format: biochemical
T9 construct: purchased Reaction Biology (HotSpot contract assay)

PASK = molecular target: T10, PASK (Homo sapiens, UniProt Q96RG2); test: HotSpot in vitro kinase radiometric assay; format: biochemical
T10 construct: purchased Reaction Biology (HotSpot contract assay)
In short: as §1

TRKA = molecular target: T11, TRKA (Homo sapiens, UniProt P04629); test: HotSpot in vitro kinase radiometric assay; format: biochemical
T11 construct: purchased Reaction Biology (HotSpot contract assay)
In short: as §1

TRKC = molecular target: T12, TRKC (Homo sapiens, UniProt Q16288); test: HotSpot in vitro kinase radiometric assay; format: biochemical
T12 construct: purchased Reaction Biology (HotSpot contract assay)

LCK = molecular target: T13, LCK (Homo sapiens, UniProt P06239); test: HotSpot in vitro kinase radiometric assay; format: biochemical
T13 construct: purchased Reaction Biology (HotSpot contract assay)

YES/YES1 = molecular target: T14, YES/YES1 (Homo sapiens, UniProt P07947); test: HotSpot in vitro kinase radiometric assay; format: biochemical
T14 construct: purchased Reaction Biology (HotSpot contract assay)

HSP90AB1 = test system: HSP90AB1; parameters: method as in ChEMBL23 (accessed: 23/08/2018); settings: average of reported values; ref ChEMBL23 (accessed: 23/08/2018); cited from earlier work
PIM1 = test system: PIM1; parameters: method as in ChEMBL23 (accessed: 23/08/2018); settings: average of reported values; ref ChEMBL23 (accessed: 23/08/2018); cited from earlier work
CDK2 = test system: CDK2; parameters: method as in ChEMBL23 (accessed: 23/08/2018); settings: average of reported values; ref ChEMBL23 (accessed: 23/08/2018); cited from earlier work
PRKD2 = test system: PRKD2; parameters: method as in ChEMBL23 (accessed: 23/08/2018); settings: average of reported values; ref ChEMBL23 (accessed: 23/08/2018); cited from earlier work
PRKD3 = test system: PRKD3; parameters: method as in ChEMBL23 (accessed: 23/08/2018); settings: average of reported values; ref ChEMBL23 (accessed: 23/08/2018); cited from earlier work
CSF1R = test system: CSF1R; parameters: method as in ChEMBL23 (accessed: 23/08/2018); settings: average of reported values; ref ChEMBL23 (accessed: 23/08/2018); cited from earlier work
RPS6KA3 = test system: RPS6KA3; parameters: method as in ChEMBL23 (accessed: 23/08/2018); settings: average of reported values; ref ChEMBL23 (accessed: 23/08/2018); cited from earlier work
ROCK1 = test system: ROCK1; parameters: method as in ChEMBL23 (accessed: 23/08/2018); settings: average of reported values; ref ChEMBL23 (accessed: 23/08/2018); cited from earlier work
ROCK2 = test system: ROCK2; parameters: method as in ChEMBL23 (accessed: 23/08/2018); settings: average of reported values; ref ChEMBL23 (accessed: 23/08/2018); cited from earlier work
ABL1 = ABL1 (Homo sapiens, UniProt P00519); test: HotSpot in vitro kinase radiometric assay; format: biochemical; parameters: purchased Reaction Biology (HotSpot contract assay)
DDR1 = DDR1 (Homo sapiens, UniProt Q08345); test: HotSpot in vitro kinase radiometric assay; format: biochemical; parameters: purchased Reaction Biology (HotSpot contract assay)
DDR1, sequence (Q08345 19-913): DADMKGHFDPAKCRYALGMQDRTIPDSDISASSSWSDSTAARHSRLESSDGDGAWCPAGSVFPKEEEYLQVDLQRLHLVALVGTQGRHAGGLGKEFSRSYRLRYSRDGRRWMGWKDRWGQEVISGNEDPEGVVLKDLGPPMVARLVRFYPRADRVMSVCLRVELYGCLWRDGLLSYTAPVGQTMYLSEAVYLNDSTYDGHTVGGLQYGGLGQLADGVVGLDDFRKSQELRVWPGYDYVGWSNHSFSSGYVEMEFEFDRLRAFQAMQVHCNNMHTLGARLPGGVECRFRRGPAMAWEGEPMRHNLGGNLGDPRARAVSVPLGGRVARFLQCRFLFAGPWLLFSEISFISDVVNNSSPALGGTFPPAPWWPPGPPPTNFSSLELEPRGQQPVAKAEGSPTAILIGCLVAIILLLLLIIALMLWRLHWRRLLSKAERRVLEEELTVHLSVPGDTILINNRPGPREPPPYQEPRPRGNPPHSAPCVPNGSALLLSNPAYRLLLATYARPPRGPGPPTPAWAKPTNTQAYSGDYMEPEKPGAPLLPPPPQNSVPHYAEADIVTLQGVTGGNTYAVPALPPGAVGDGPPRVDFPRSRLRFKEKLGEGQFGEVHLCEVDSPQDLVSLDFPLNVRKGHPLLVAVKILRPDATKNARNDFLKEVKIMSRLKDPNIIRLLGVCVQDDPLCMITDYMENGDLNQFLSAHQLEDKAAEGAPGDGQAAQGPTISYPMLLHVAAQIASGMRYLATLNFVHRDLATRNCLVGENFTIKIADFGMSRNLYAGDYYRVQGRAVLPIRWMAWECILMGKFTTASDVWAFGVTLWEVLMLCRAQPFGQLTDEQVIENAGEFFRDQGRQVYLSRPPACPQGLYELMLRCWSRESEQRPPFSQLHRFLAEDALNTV

T3 sequence (P07948 1-491 isoform P07948-2): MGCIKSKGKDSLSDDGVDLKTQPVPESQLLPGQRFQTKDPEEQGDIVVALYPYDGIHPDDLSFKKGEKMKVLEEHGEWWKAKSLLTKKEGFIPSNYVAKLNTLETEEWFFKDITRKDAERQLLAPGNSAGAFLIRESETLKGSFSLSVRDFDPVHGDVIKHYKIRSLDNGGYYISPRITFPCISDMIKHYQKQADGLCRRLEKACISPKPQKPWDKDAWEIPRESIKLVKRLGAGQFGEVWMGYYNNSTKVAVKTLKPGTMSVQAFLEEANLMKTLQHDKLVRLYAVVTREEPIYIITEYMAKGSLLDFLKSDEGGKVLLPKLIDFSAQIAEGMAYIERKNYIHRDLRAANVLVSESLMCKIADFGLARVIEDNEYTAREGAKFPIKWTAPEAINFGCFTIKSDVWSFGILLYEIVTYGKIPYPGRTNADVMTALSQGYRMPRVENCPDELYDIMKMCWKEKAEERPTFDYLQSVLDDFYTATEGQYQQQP
T1 sequence (P42684 whole entry): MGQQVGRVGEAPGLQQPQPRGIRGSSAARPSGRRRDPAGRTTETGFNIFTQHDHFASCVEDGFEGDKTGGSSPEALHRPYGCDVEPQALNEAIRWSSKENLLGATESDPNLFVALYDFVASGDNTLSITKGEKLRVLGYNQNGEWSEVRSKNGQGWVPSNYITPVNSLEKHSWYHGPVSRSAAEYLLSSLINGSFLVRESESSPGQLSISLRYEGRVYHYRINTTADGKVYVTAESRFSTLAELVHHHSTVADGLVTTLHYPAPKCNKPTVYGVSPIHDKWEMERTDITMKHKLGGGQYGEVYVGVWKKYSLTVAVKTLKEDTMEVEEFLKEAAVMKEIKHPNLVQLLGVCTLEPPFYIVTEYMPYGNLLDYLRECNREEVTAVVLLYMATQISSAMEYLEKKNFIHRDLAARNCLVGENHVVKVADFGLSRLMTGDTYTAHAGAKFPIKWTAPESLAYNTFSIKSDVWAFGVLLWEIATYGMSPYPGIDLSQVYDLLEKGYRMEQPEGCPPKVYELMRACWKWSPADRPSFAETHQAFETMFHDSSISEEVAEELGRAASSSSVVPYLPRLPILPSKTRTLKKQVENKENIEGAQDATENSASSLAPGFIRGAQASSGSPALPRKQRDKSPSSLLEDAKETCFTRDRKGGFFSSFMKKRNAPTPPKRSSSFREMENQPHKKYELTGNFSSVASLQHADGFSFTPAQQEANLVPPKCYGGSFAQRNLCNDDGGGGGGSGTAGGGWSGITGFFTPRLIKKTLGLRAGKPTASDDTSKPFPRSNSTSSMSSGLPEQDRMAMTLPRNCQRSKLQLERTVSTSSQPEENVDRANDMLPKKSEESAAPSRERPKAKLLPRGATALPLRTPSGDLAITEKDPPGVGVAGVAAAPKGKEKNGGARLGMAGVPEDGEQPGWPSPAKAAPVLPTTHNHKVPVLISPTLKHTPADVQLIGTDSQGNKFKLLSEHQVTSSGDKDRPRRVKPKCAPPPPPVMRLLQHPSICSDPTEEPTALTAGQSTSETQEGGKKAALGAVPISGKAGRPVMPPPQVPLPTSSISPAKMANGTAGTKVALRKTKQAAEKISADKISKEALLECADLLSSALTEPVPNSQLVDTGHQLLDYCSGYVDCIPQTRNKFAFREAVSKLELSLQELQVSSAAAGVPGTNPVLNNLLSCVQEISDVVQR
T6 sequence (P12931 whole entry): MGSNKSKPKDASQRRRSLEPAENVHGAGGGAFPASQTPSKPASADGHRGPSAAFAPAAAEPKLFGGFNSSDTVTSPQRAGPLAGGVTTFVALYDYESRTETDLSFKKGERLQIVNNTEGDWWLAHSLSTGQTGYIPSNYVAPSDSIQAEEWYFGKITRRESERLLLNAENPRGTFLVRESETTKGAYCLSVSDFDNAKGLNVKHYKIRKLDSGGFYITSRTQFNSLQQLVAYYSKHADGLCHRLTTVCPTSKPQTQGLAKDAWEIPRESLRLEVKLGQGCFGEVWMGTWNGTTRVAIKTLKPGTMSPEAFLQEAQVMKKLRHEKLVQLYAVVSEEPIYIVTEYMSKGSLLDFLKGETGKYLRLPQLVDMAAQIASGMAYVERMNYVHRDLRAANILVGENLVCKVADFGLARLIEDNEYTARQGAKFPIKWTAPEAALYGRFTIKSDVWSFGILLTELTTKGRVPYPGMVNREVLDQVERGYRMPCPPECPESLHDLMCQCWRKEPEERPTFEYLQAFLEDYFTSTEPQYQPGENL
T7 sequence (Q9H792 whole entry): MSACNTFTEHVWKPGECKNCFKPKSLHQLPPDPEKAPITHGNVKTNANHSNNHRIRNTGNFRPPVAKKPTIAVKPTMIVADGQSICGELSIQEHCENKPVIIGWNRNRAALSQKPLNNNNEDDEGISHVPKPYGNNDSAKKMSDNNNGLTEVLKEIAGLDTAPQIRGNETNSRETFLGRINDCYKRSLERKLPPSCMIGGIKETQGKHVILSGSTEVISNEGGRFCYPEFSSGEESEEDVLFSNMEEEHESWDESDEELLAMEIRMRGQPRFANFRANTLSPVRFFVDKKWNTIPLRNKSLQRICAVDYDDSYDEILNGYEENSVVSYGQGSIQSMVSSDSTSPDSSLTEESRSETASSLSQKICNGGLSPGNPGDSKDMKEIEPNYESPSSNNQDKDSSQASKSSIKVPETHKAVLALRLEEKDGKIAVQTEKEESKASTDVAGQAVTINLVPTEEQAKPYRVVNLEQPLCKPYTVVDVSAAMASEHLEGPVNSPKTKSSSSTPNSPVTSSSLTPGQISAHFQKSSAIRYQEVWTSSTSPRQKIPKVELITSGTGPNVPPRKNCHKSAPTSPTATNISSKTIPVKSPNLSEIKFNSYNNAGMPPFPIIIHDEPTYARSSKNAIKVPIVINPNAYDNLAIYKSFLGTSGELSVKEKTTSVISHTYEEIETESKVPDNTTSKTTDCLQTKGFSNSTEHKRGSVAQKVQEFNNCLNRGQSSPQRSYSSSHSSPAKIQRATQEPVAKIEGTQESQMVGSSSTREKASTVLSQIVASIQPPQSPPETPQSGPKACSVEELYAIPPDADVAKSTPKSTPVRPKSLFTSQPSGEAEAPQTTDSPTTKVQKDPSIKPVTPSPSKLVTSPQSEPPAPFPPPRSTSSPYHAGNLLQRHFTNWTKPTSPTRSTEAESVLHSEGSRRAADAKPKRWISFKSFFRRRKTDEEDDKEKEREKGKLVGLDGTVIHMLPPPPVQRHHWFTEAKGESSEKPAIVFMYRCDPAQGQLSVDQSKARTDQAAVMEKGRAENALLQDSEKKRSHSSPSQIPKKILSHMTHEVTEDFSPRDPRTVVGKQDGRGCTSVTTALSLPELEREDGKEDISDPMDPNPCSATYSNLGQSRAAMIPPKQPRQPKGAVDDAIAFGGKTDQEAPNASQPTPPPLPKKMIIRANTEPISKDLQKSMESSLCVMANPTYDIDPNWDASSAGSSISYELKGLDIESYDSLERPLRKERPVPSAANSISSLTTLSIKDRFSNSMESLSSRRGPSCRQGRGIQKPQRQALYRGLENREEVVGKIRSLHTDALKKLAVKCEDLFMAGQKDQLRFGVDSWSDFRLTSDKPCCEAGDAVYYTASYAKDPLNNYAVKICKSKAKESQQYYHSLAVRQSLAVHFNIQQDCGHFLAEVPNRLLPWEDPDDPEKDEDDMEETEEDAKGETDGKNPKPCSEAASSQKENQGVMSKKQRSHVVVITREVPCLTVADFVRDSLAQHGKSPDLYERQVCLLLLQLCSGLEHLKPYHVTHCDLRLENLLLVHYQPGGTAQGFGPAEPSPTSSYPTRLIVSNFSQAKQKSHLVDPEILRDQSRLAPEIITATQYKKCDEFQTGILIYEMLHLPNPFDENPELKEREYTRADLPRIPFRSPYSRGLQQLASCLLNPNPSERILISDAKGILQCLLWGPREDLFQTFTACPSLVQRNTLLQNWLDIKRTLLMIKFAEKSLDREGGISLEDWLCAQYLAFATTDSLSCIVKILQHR

`CCNC(=O)c1n[nH]c(-c2cc(Cl)c(O)cc2O)c1-c1ccc(OC)cc1` [VER-49009] gave a remaining activity at 10 µM (ABL2/ARG; read-out: % Enzyme Activity (relative to DMSO controls), ABL2/ARG, 10uM, ATP 30 uM, Data 1, Data 2) of 101%, an inhibition at 10 µM (ABL2/ARG; read-out: % inhibition at 10 uM: ABL2) of 1 ± 3% and a remaining activity at 10 µM (BLK; read-out: % Enzyme Activity (relative to DMSO controls), BLK, 10uM, ATP 10 uM, Data 1, Data 2) of 70.1%. It also gave an inhibition at 10 µM (BLK; read-out: % inhibition at 10 uM: BLK) of 24 ± 8%, a remaining activity at 10 µM (LYN B; read-out: % Enzyme Activity (relative to DMSO controls), LYN B, 10uM, ATP 20 uM, Data 1, Data 2) of 108% and an inhibition at 10 µM (LYN B; read-out: % inhibition at 10 uM: LYN B) of -6 ± 3%. The inhibition at 10 µM (PDK2/PDHK2) was 95 ± 5%, the remaining activity at 10 µM (PDK4/PDKH4; read-out: % Enzyme Activity (relative to DMSO controls), PDK4/PDKH4, 10uM, ATP 30 uM, Data 1, Data 2) was 15.1% and the inhibition at 10 µM (PDK4/PDKH4; read-out: % inhibition at 10 uM: PDK4) was 86 ± 1%. The remaining activity at 10 µM (c-Src; read-out: % Enzyme Activity (relative to DMSO controls), c-Src, 10uM, ATP 15 uM, Data 1, Data 2) was 65.9%, the inhibition at 10 µM (c-Src; read-out: % inhibition at 10 uM: SRC) was 35 ± 1% and the remaining activity at 10 µM (PEAK1; read-out: % Enzyme Activity (relative to DMSO controls), PEAK1, 10uM, ATP 30 uM, Data 1, Data 2) was 75.5%. For the same compound, the inhibition at 10 µM (PEAK1; read-out: % inhibition at 10 uM: PEAK1) was 24%, the remaining activity at 10 µM (FGR; read-out: % Enzyme Activity (relative to DMSO controls), FGR, 10uM, ATP 50 uM, Data 1, Data 2) was 99% and the inhibition at 10 µM (FGR; read-out: % inhibition at 10 uM: FGR) was 1%. It also gave a remaining activity at 10 µM (FYN; read-out: % Enzyme Activity (relative to DMSO controls), FYN, 10uM, ATP 30 uM, Data 1, Data 2) of 89.2%, an inhibition at 10 µM (FYN; read-out: % inhibition at 10 uM: FYN) of 13 ± 3% and a remaining activity at 10 µM (PASK; read-out: % Enzyme Activity (relative to DMSO controls), PASK, 10uM, ATP 50 uM, Data 1, Data 2) of 98%. For the same compound, the inhibition at 10 µM (PASK; read-out: % inhibition at 10 uM: PASK) was 2%, the remaining activity at 10 µM (TRKA; read-out: % Enzyme Activity (relative to DMSO controls), TRKA, 10uM, ATP 100 uM, Data 1, Data 2) was 20.6% and the inhibition at 10 µM (TRKA; read-out: % inhibition at 10 uM: TRKA) was 79 ± 1%. For the same compound, the remaining activity at 10 µM (TRKC; read-out: % Enzyme Activity (relative to DMSO controls), TRKC, 10uM, ATP 100 uM, Data 1, Data 2) was 68.4%, the inhibition at 10 µM (TRKC; read-out: % inhibition at 10 uM: TRKC) was 28 ± 5% and the remaining activity at 10 µM (LCK; read-out: % Enzyme Activity (relative to DMSO controls), LCK, 10uM, ATP 15 uM, Data 1, Data 2) was 72.8%. The inhibition at 10 µM (LCK; read-out: % inhibition at 10 uM: LCK) was 25 ± 3%, the remaining activity at 10 µM (YES/YES1; read-out: % Enzyme Activity (relative to DMSO controls), YES/YES1, 10uM, ATP 50 uM, Data 1, Data 2) was 77.2% and the inhibition at 10 µM (YES/YES1; read-out: % inhibition at 10 uM: YES) was 24 ± 1%. For the same compound, the “pActivity, HSP90AB1” value (HSP90AB1) was 7.6, the “pActivity, PIM1” value (PIM1) was 5.6 and the “pActivity, CDK2” value (CDK2) was 5.2. The “pActivity, PRKD2” value (PRKD2) was 5.8, the “pActivity, PRKD3” value (PRKD3) was 5.8 and the “pActivity, CSF1R” value (CSF1R) was 5.9. The “pActivity, RPS6KA3” value (RPS6KA3) was 5.5, the “pActivity, ROCK1” value (ROCK1) was 5.4 and the “pActivity, ROCK2” value (ROCK2) was 5.6. The remaining activity at 10 µM (ABL1; read-out: % Enzyme Activity (relative to DMSO controls), ABL1, 10uM, ATP 40 uM, Data 1, Data 2) was 80.2%, the inhibition at 10 µM (ABL1; read-out: % inhibition at 10 uM: ABL1) was 14 ± 8% and the remaining activity at 10 µM (DDR1; read-out: % Enzyme Activity (relative to DMSO controls), DDR1, 10uM, ATP 100 uM, Data 1, Data 2) was 65.8%. It also gave an inhibition at 10 µM (DDR1; read-out: % inhibition at 10 uM: DDR1) of 29 ± 8%.
